Measured values reported in US20240016788A1, “PHARMACEUTICAL COMPOSITION FOR PREVENTING OR TREATING DIABETIC AND POSTMENOPAUSAL OSTEOPOROSIS, CONTAINING ADIPORON” (PnP Biopharm Co., Ltd., priority 2020, published 2024).

Key:
Type in all cases: in vivo
[1] = test system: ovariectomized C57BL/6 mice; experiment: Western blot of bone tissue, ovariectomized mice; conditions: for Decreased expression of adiponectin-receptor 1/2 (western blot): 6 weeks
Experimental: 7 weeks after ovariectomization or sham surgery of 7-week-old C57BL/6 mice, normal feed group (adiporon non-administered group; control group) administration group, 2.5 mg/kg day or 25 mg/kg day, respectively Feed comprising adiporon was consumed for 6 weeks from 14 weeks of age. Body weight was measured every week during the experiment period, and the experiment was conducted after 6 weeks of administration.
Protein was extracted using Pro-Prep Protein Extraction Solution (Intron Biotechnology, Gyeonggi-Do, Korea), and SDS-PAGE (sodium dodecyl sulfate-polyacrylamide gel electrophoresis) was performed. The separated protein was transferred to a nitrocellulose membrane (Amersham Co., Buckinghamshire, England) and treated with Tris buffered saline (in TBS-T: 0.1% Tween-20 in Tris buffer saline, pH 7.5) containing 3% skim milk. After blocking for an hour, the blots were reacted in adiponectin receptor 1/2, total AMPK, phospho-Thr172AMPK, PGC-1α, Nrf-2, SOD1/2, NQO1, HO-1, NOX4, NF-κB and β-actin primary antibody solution, washing, reacting with a secondary antibody against each primary antibody, and then photosensitizing through ECL (Pierce, Rockford IL) to confirm the band. The expression level of each protein was normalized according to β-actin.

[2] = test system: type 2 diabetic db/db mice; experiment: Histological examination (H&E, trichrome, Safranin O) of ilium (femur) and lumbar vertebra 5, db/db mice; conditions: adiporon 30 mg/kg/day, 4 weeks
Experimental: A leptin receptor-defective type 2 diabetic animal model (db/db mice) and a normal control group (db/m mice) were used, and the experiment was performed by dividing into 4 groups as follows: non-diabetic control group (dm cont, n=8), non-diabetic adiporon treatment group (dm+AdipoR, n=8), diabetic control group (db cont, n=8) and diabetic adiporon treatment group (db+AdipoR, n=8). The control group was fed a normal diet, and the adiporon treatment group was fed a diet comprising adiporon (30 mg/kg/day) for 4 weeks from 16 weeks of age. During the experiment, body weight was measured every week, fasting blood glucose was measured using an Accu-Chek meter (Roche Diagnostics, St. Louis, MO) every 2 weeks after blood was collected from the tail vein, and glycated hemoglobin (HbA1c) was measured every 4 weeks using a […] automatic analyzer (Bayer healthcare LLC, IN) after blood was collected from the tail vein. The temperature and humidity of the breeding room were maintained at 20˜25° C. and 50˜60%, respectively, and the lights were turned on and off at 12-hour intervals. After removing tissues of the femur and L5 lumbar vertebrae, some of them were fixed in 10% formalin for immunostaining and decalcified. Thereafter, after neutralization with 0.5M Phosphate buffer (pH 7.4), washing, and embedding in paraffin. Tissue sections were cut to a thickness of 5 μm, and hematoxylin and eosin staining (H&E staining), trichrome staining, and Safranin O staining were performed. In bone tissue, double immunofluorescence staining method was performed using anti-adiponectin receptor 1/2 antibody, anti-perilipin-1 antibody, anti-RANKL antibody, anti-TNF-α antibody, and ApopTag Fluorescein In Situ Apoptosis Detection Kit (Chemicon International, Temecula, CA) and expression was observed using a confocal microscope.

[3] = test system: type 2 diabetic db/db mice; experiment: Micro-CT of ilium (femur) and lumbar vertebra 5, db/db mice; conditions: adiporon 30 mg/kg/day, 4 weeks
Experimental: A leptin receptor-defective type 2 diabetic animal model (db/db mice) and a normal control group (db/m mice) were used, and the experiment was performed by dividing into 4 groups as follows: non-diabetic control group (dm cont, n=8), non-diabetic adiporon treatment group (dm+AdipoR, n=8), diabetic control group (db cont, n=8) and diabetic adiporon treatment group (db+AdipoR, n=8). The control group was fed a normal diet, and the adiporon treatment group was fed a diet comprising adiporon (30 mg/kg/day) for 4 weeks from 16 weeks of age. During the experiment, body weight was measured every week, fasting blood glucose was measured using an Accu-Chek meter (Roche Diagnostics, St. Louis, MO) every 2 weeks after blood was collected from the tail vein, and glycated hemoglobin (HbA1c) was measured every 4 weeks using a […] automatic analyzer (Bayer healthcare LLC, IN) after blood was collected from the tail vein. The temperature and humidity of the breeding room were maintained at 20˜25° C. and 50˜60%, respectively, and the lights were turned on and off at 12-hour intervals. The imaging was performed with micro-CT (Skyscan 1172, Belgium), the tube voltage was 60 kV, the tube current was 167 uA, 0.5 mm aluminum filtration was used, and the pixel size was 5.9 μm. For the shooting angle, a 2-dimensional image was reconstructed with Nrecon Reconstruction (Skyscan, Belgium). For 3D image analysis, CTAn (Skyscan, Belgium) was used, images were obtained by rotating 360°, and exposure time was 440 ms. A total of 7 types of indicators were used in this invention. BMD (bone mineral density, bone density) was measured based on phantoms of 0.25 g/cm^3 and 0.75 g/cm^3. BV/TV (Bone volume/Total volume, percent bone volume, %) is the ratio of voxels representing the solid region out of the total voxels present in the binarized and surfaced volume of interest, and it means the ratio occupied by bone trabeculae within the volume of interest, and i.s (Interception surfaces, mm2) means the generation of new bone. […] BS/BV (Bone surface/Bone volume, bone specific surface, mm^−1) is the ratio of the voxel surface area to the number of voxels in the binarized solid region within the volume of interest and it means the ratio of the surface area of the trabecular bone to the volume of the trabecular bone. The lower the value, the higher the bone strength. Tb.Th (trabecular thickness, mm) is obtained by averaging the diameters of these spheres, after placing a sphere comprising the corresponding voxel for each voxel representing the solid region within the volume of interest so that the size of the sphere is the largest that includes only the solid region and it means the average thickness of the trabecular bone. […] In the same way, using Tb.Sp (trabecular separation, mm), the average length between trabecular lines and Tb.N (trabecular number, mm^−1) were used to obtain the average number of trabecular lines.

[4] = ilium (femur), adiporon 2.5 or 25 mg/kg day, dose not distinguished
[5] = vertebrae (lumbar vertebrae 5), adiporon 2.5 or 25 mg/kg day, dose not distinguished

Cl.O=C(COc1ccc(C(=O)c2ccccc2)cc1)NC1CCN(Cc2ccccc2)CC1 [adiporon]
Decreased expression of adiponectin-receptor 1/2 (western blot) ([1]; ilium (femur), adiporon 2.5 mg/kg day): restored | Decreased expression of adiponectin-receptor 1/2 (western blot) ([1]; ilium (femur), adiporon 25 mg/kg day): restored | Activation of adiponectin-receptor 1-AMPK [1, 4]: increased | Expression of PGC-1α [1, 4]: increased | Expression of adiponectin-receptor 2-PPARα [1, 4]: increased | Decreased expression of adiponectin-receptor 1/2 (western blot) ([1]; vertebrae (lumbar vertebrae 5), adiporon 2.5 mg/kg day): restored | Decreased expression of adiponectin-receptor 1/2 (western blot) ([1]; vertebrae (lumbar vertebrae 5), adiporon 25 mg/kg day): restored | Activation of adiponectin-receptor 1-AMPK [1, 5]: increased | Expression of PGC1α [1, 5]: increased | Expression of adiponectin-receptor 2-PPARα [1, 5]: increased | Decrease in the ilium growth plate (thickness) ([2]; ilium (femur)): recovered | Increase in adipose tissue in tissue ([2]; ilium (femur)): recovered | Increase in fibrosis in tissue ([2]; ilium (femur)): recovered | Increase in adipose tissue in tissue ([2]; vertebrae (lumbar vertebrae 5)): reversed | Increase in fibrosis in tissue ([2]; vertebrae (lumbar vertebrae 5)): reversed | Bone mineral density index (micro-CT) ([3]; ilium): significantly increased and improved | Bone surface index (micro-CT) ([3]; ilium): significantly increased and improved | Bone volume index (micro-CT) ([3]; ilium): significantly increased and improved | Trabecular number index (micro-CT) ([3]; ilium): significantly increased and improved | Trabecular thickness index (micro-CT) ([3]; ilium): significantly increased and improved | Trabecular thickness (micro-CT) ([3]; vertebrae (lumbar vertebrae 5)): increased and improved
